Tests used:
[1] = target: Recombinant Human Siglec-3/CD33 protein (His-CD33) (Homo sapiens (Human), UniProt P20138); assay: Differential scanning fluorimetry (DSF) thermal shift assay; type: binding
[2] = target: Recombinant human CD33 protein (Homo sapiens (Human), UniProt P20138); assay: CD33 competitive binding assay for HTS drug screen (fluorescent multivalent sialic acid probe)
Outline: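 Inhibition was read as reduced retention of a fluorescent multivalent sialic acid complex (final 5 μM neutravidin, 15 μM A-375, 5 μM biotin-4-FITC) on plate-immobilized human CD33. Compound was added first, the probe followed for 30 min at room temperature in PBS with 0.2% Tween-20 and 0.5% BSA, and FITC was measured after a wash.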

[3] = thermal melt shift of 0.5 μM CD33 protein with 50 μM compound
[4] = difference in thermal melt of CD33 protein (0.5 μM) with 50 μM compound

Sequence of Recombinant Human Siglec-3/CD33 protein (His-CD33) (P20138 18-259): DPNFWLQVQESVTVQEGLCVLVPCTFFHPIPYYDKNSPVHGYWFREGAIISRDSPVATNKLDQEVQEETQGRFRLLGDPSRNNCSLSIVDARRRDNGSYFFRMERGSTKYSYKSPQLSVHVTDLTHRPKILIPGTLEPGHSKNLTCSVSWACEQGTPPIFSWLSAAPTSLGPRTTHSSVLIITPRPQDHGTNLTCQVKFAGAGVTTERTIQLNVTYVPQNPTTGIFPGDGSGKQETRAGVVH
Sequence of Recombinant human CD33 protein (P20138 18-259): as above

| Structure (SMILES) | DSF (dTmD) [1, 3] | EC50 [2] | DSF (dTmD) [1, 4] |
| --- | --- | --- | --- |
| CC(=O)N[C@H]1[C@H]([C@H](O)[C@H](O)CNC(=O)c2cccc(Cl)c2)O[C@@](CCN2CCOC[C@@]23CCN(C(=O)OC(C)(C)C)C3)(C(=O)O)C[C@@H]1O [A-182] | 11.7 | 73 nM |  |
| CC(=O)N[C@H]1[C@H]([C@H](O)[C@H](O)CNC(=O)c2cccc(N(C)C)c2)O[C@@](CCN2CCOC[C@@]23CCN(C(=O)OC(C)(C)C)C3)(C(=O)O)C[C@@H]1O [A-183] | 10.3 | 173 nM |  |
| CC(=O)Nc1ccc(C(=O)NC[C@@H](O)[C@@H](O)[C@@H]2O[C@@](CCN3CCOC[C@@]34CCN(C(=O)OC(C)(C)C)C4)(C(=O)O)C[C@H](O)[C@H]2NC(C)=O)cc1 [A-184] | 6.0 | 1090 nM |  |
| CC(=O)N[C@H]1[C@H]([C@H](O)[C@H](O)CNC(=O)c2cc(F)c(F)c(F)c2)O[C@@](CCN2CCOC[C@@]23CCN(C(=O)OC(C)(C)C)C3)(C(=O)O)C[C@@H]1O [A-185] | 5.0 | 3600 nM |  |
| CC(=O)N[C@H]1[C@H]([C@H](O)[C@H](O)CNC(=O)c2ccc(Cl)c(Cl)c2)O[C@@](CCN2CCOC[C@@]23CCN(C(=O)OC(C)(C)C)C3)(C(=O)O)C[C@@H]1O [A-186] | 10.8 | 127 nM |  |
| CC(=O)N[C@H]1[C@H]([C@H](O)[C@H](O)CNC(=O)c2ccccc2)O[C@@](CCN2CCOC[C@@]23CCN(C(=O)OC(C)(C)C)C3)(C(=O)O)C[C@@H]1O [A-187] | 6.8 | 1010 nM |  |
| CC(=O)N[C@H]1[C@H]([C@H](O)[C@H](O)CNC(=O)c2cc(C)on2)O[C@@](CCN2CCOC[C@@]23CCN(C(=O)OC(C)(C)C)C3)(C(=O)O)C[C@@H]1O [A-188] | 4.5 | 2080 nM |  |
| CC(=O)N[C@H]1[C@H]([C@H](O)[C@H](O)CNC(=O)c2cnc(O)c(C)c2)O[C@@](CCN2CCOC[C@@]23CCN(C(=O)OC(C)(C)C)C3)(C(=O)O)C[C@@H]1O [A-189] | 9.8 | 150 nM |  |
| CC(=O)N[C@H]1[C@H]([C@H](O)[C@H](O)CNC(=O)c2cc(C)cc(C)c2)O[C@@](CCN2CCOC[C@@]23CCN(C(=O)OC(C)(C)C)C3)(C(=O)O)C[C@@H]1O [A-190] | 10.1 | 119 nM |  |
| CC(=O)N[C@H]1[C@H]([C@H](O)[C@H](O)CNC(=O)c2cc(C)c(=O)n(C)c2)O[C@@](CCN2CCOC[C@@]23CCN(C(=O)OC(C)(C)C)C3)(C(=O)O)C[C@@H]1O [A-191] | 9.4 | 163 nM |  |
| CC(=O)N[C@H]1[C@H]([C@H](O)[C@H](O)CNC(=O)c2cc(C)c(F)c(C)c2)O[C@@](CCN2CCOC[C@@]23CCN(C(=O)OC(C)(C)C)C3)(C(=O)O)C[C@@H]1O [A-192] | 12.1 | 47 nM |  |
| CC(=O)N[C@H]1[C@H]([C@H](O)[C@H](O)CNC(=O)c2cc(C)c(O)c(C)c2)O[C@@](C/C=C/C2CCN(C(=O)OC(C)(C)C)C2)(C(=O)O)C[C@@H]1O (some centres unmarked) [A-194] | 11.7 | 26 nM |  |
| CC(=O)N[C@H]1[C@H]([C@H](O)[C@H](O)CNC(=O)c2cc(C)c(O)c(C)c2)O[C@@](C/C=C/C2(C)CCN(C(=O)OC(C)(C)C)C2)(C(=O)O)C[C@@H]1O (some centres unmarked) [A-195] | 10.8 | 42 nM |  |
| CC(=O)N[C@H]1[C@H]([C@H](O)[C@H](O)CNC(=O)c2cc(C)c(O)c(C)c2)O[C@@](CCCC2(C)CCN(C(=O)OC(C)(C)C)C2)(C(=O)O)C[C@@H]1O (some centres unmarked) [A-196] | 7.7 | 257 nM |  |
| CC(=O)N[C@H]1[C@H]([C@H](O)[C@H](O)CNC(=O)c2cc(C)c(O)c(C)c2)O[C@@](CCN2CCOC[C@@]23CCN(C(=O)OC(C)(C)C)C3)(C(=O)O)C[C@]1(C)O [A-200] |  | 131 nM | 8.7 °C |
| CC(=O)N[C@H]1[C@H]([C@H](O)[C@H](O)CNC(=O)c2cc(C)c(O)c(C)c2)O[C@@](CCN2CCOC[C@@]23CCN(C(=O)OC(C)(C)C)C3)(C(=O)O)C[C@@]1(C)O [A-201] |  | 1720 nM | 6.2 °C |
| Cc1cc(C(=O)NC[C@@H](O)[C@@H](O)[C@H]2C[C@@H](O)C[C@](CCN3CCOC[C@@]34CCN(C(=O)OC(C)(C)C)C4)(C(=O)O)O2)cc(C)c1O [A-202] |  | 311 nM | 5.46 °C |
| CC(=O)N[C@H]1[C@H]([C@H](O)[C@](C)(O)CNC(=O)c2cc(C)c(O)c(C)c2)O[C@@](CCN2CCOC[C@@]23CCN(C(=O)OC(C)(C)C)C3)(C(=O)O)C[C@@H]1O [A-204] |  | 582 nM | 5.0 °C |
| CC(=O)N[C@H]1[C@H]([C@H](O)[C@@](C)(O)CNC(=O)c2cc(C)c(O)c(C)c2)O[C@@](CCN2CCOC[C@@]23CCN(C(=O)OC(C)(C)C)C3)(C(=O)O)C[C@@H]1O [A-205] |  | 1820 nM | 3.5 °C |
| COC(=O)[C@@]1(CCN2CCOC[C@@]23CCN(C(=O)OC(C)(C)C)C3)CCC[C@H](C[C@H](O)CNC(=O)c2cc(C)c3[nH]ccc3c2)O1 [A-206, tert-butyl (S)-6-(2-((2S,6R)-6-((S)-2-hydroxy-3-(7-methyl-1H-indole-5-carboxamido)propyl)-2-(methoxycarbonyl)tetrahydro-2H-pyran-2-yl)ethyl)-9-oxa-2,6-diazaspiro[4.5]decane-2-carboxylate] |  | > 100000 nM | 0.1 °C |
| COC(=O)[C@@]1(CCN2CCOC[C@@]23CCN(C(=O)OC(C)(C)C)C3)CCC[C@H](C[C@H](O)CNC(=O)c2cc(C)c3[nH]ccc3c2)O1 [A-207] |  | 3750 nM | 5.0 °C |
| CC(=O)NC1[C@H]([C@H](O)[C@H](O)CNC(=O)c2cc(C)c(O)c(C)c2)O[C@@](CC(=O)N2CCOC[C@]23CCN(C(=O)OC(C)(C)C)C3)(C(=O)O)C[C@@H]1O (some centres unmarked) [A-220] |  | 55 nM | 9.3 °C |
| CC(=O)NC1[C@H]([C@H](O)[C@H](O)CNC(=O)c2cc(C)c(O)c(C)c2)O[C@@](CC(=O)N2CCOC[C@@]23CCN(C(=O)OC(C)(C)C)C3)(C(=O)O)C[C@@H]1O (some centres unmarked) [A-221] |  | 162 nM | 7.0 °C |
| CC(=O)NC1[C@H]([C@H](O)[C@H](O)CNC(=O)c2cc(C)c(O)c(C)c2)O[C@@](CC(=O)N2CCOC[C@@]23CCN(C(=O)NC(C)(C)C)C3)(C(=O)O)C[C@@H]1O (some centres unmarked) [A-223] |  | 123 nM | 8.9 °C |

The remaining lines, values ahead:

| DSF (dTmD) [1, 3] | EC50 [2] | DSF (dTmD) [1, 4] | Structure (SMILES) |
| --- | --- | --- | --- |
|  | 143 nM | 8.9 °C | CC(=O)N[C@H]1[C@H]([C@H](O)[C@H](O)CNC(=O)c2cc(C)c(O)c(C)c2)O[C@@](C[C@H]2COC[C@]3(CCN(C(=O)OC(C)(C)C)C3)N2)(C(=O)O)C[C@@H]1O [A-224] |
|  | 552 nM | 6.4 °C | CC(=O)N[C@H]1[C@H]([C@H](O)[C@H](O)CNC(=O)c2cc(C)c(O)c(C)c2)O[C@@](C[C@@H]2COC[C@]3(CCN(C(=O)OC(C)(C)C)C3)N2)(C(=O)O)C[C@@H]1O [A-225] |
|  | 12 nM | 14.6 °C | CC(=O)N[C@H]1[C@H]([C@H](O)[C@H](O)CNC(=O)c2cc(C)c(O)c(C)c2)O[C@@](C[C@H]2COC[C@@]3(CCN(C(=O)OC(C)(C)C)C3)N2)(C(=O)O)C[C@@H]1O [A-227] |
|  | 14 nM | 13.4 °C | CC(=O)N[C@H]1[C@H]([C@H](O)[C@H](O)CNC(=O)c2cc(C)c(O)c(C)c2)O[C@@](C[C@H]2COC[C@@]3(CCN(C(=O)NC(C)(C)C)C3)N2)(C(=O)O)C[C@@H]1O [A-228] |
|  | 22 nM | 13.0 °C | CC(=O)N[C@H]1[C@H]([C@H](O)[C@H](O)CNC(=O)c2cc(C)c(O)c(C)c2)O[C@@](C[C@@H]2COC[C@]3(CCN(C(=O)OC(C)(C)C)C3)N2)(C(=O)O)C[C@@H]1O [A-229] |
|  | 10600 nM | 1.1 °C | CC(=O)N[C@H]1[C@H]([C@H](O)[C@H](O)CNC(=O)c2cc(C)c(O)c(C)c2)O[C@@](C[C@@H]2COCC3(CCN(C(=O)OC(C)(C)C)CC3)N2)(C(=O)O)C[C@@H]1O [A-230] |
|  | 1410 nM | 5.2 °C | CC(=O)N[C@H]1[C@H]([C@H](O)[C@H](O)CNC(=O)c2cc(C)c(O)c(C)c2)O[C@@](C[C@H]2COCC3(CCN(C(=O)OC(C)(C)C)CC3)N2)(C(=O)O)C[C@@H]1O [A-231] |
|  | 74 nM | 9.8 °C | COCc1cc2cc(C(=O)NCc3cccc(/C=C/C[C@]4(C(=O)O)C[C@H](O)[C@@H](NC(C)=O)[C@H]([C@H](O)[C@H](O)CNC(=O)c5cc(C)c(O)c(C)c5)O4)c3)ccc2[nH]1 [A-232] |
|  | 8990 nM | 3.0 °C | CC(=O)N[C@H]1[C@H]([C@H](O)[C@H](O)CNC(=O)c2cc(C)c(O)c(C)c2)O[C@@](C/C=C/c2ccccc2CNC(=O)C2CCCOC2)(C(=O)O)C[C@@H]1O (some centres unmarked) [A-233] |
|  | 930 nM | 4.6 °C | CC(=O)N[C@H]1[C@H]([C@H](O)[C@H](O)CNC(=O)c2cc(C)c(O)c(C)c2)O[C@@](C/C=C/c2cccc(CNC(=O)c3ccc4[nH]ccc4c3)c2)(C(=O)O)C[C@@H]1O [A-234] |
|  | 2090 nM | 3.3 °C | CC(=O)N[C@H]1[C@H]([C@H](O)[C@H](O)CNC(=O)c2cc(C)c(O)c(C)c2)O[C@@](C/C=C/c2cccc(CNC(=O)c3ccc4cn[nH]c4c3)c2)(C(=O)O)C[C@@H]1O [A-235] |
|  | 2010 nM | 4.4 °C | CC(=O)N[C@H]1[C@H]([C@H](O)[C@H](O)CNC(=O)c2cc(C)c(O)c(C)c2)O[C@@](C/C=C/c2cccc(CNC(=O)c3ccc4[nH]cnc4c3)c2)(C(=O)O)C[C@@H]1O [A-236] |
|  | 5030 nM | 0.8 °C | CC(=O)N[C@H]1[C@H]([C@H](O)[C@H](O)CNC(=O)c2cc(C)c(O)c(C)c2)O[C@@](C/C=C/c2cccc(CNC(=O)c3ccc4[nH]nnc4c3)c2)(C(=O)O)C[C@@H]1O [A-237] |
